In patent US20020054941A1, “Methods and compositions to enhance tenderness and value of meat” (The Board of Regents of the University of Nebraska, priority 2000, published 2002):
Marks after values point to notes of the source that are not given here.

Key:
[1] = system: triceps brachii beef muscles; assay: Glycogen content, pre-rigor injection of whole muscle; conditions: 200 mM, calcium chloride 300 mM; for Glycogen, 0 h: 0 h (before injection)
Experimental: (§1) Experiment were conducted to test the effects of pre-rigor injection of several compounds. Effects of these compounds on pH, color, tenderness and other related traits of low-value beef cuts were investigated. Ten steers (22 to 24 mo of age, 515 to 676 kg live weight) were slaughtered according to current industry procedures. Pre-rigor semimembranosus (from the round), triceps brachii and supraspinatus muscles (from the chuck) were excised, after evisceration (approximately 1 hour post-mortem), from both sides of the carcass. Muscle sections were randomly assigned to the treatments: sodium citrate (NaC; 200 mM), sodium fluoride (NaF; 200 mM), sodium acetate (NaA; 200 mM), and calcium chloride (CaCl2; 300 mM). The control samples remained on the carcass at 2° C. for 24 hours to simulate commercial conditions. Following a cooling, control muscles were removed from each carcass (4 replicates), vacuum packaged and transferred to the holding cooler with the other cuts at 2° C. Calcium chloride treatment was included to be compared with the other treatments.
(§2) At 2 hours post-mortem, each muscle was injected with a volume equal to 8% of the muscle weight using a four-needle hand injector. The temperature of solutions were 4° C. Each muscle was individually treated (2% of solution was added to give a total of 10% of muscle weight) and tumbled in a 75-pound capacity tumbler (Röschermatic, Oshabrück, Germany) for 30 min to insure uniform distribution of the solution.
(§3) Samples of each muscle (approximately 100 g) were taken at 0 hour (before injection), 24, and 72 hours after injection for determination of pH, oxidation-reduction potential, glycogen content, R-values, NAD, and NADH. The samples were then immediately frozen in liquid nitrogen and stored at −80° C. until they were powdered and analyzed. Fresh muscle samples (approximately 20 g) were taken at 72 hours after injection and assayed immediately for water holding capacity and sarcomere length.
(§4) Glycogen extraction was performed in duplicate with 3 g of frozen-powdered muscle sample, which was homogenized with 0.6 N perchloric acid. Amylo-α-1,4-α-1,6- glucosidase from Aspergillus niger (No. A3514. Sigma Chemical, St. Louis, Mo.) was used for the breakdown of the glycogen molecules to free glucose following the method described by Roehrig and Allred (1974). Homogenate was incubated for 2 hours at 37° C., then 100 μL of 3 N perchloric acid was added to precipitate the proteins. After centrifugation, the supernatant was stored at 0-4° C., until analyzed, which was within 2 weeks.
(§5) The assay for glucose was run as described by Dalrymple and Hamm (1973) and Roehrig and Allred (1974), using glucose-6-phosphate dehydrogenase (No. G8878. Sigma Chemical, St. Louis, Mo.) and hexokinase (No. H5500. Sigma Chemical, St. Louis, Mo.). Briefly, the method involves an exoglucosidase, Amylogucosidase, from Aspergillus niger which hydrolyses the -α-D-(1-4) and -α-D-(1-6)-linkages of glycogen. The glucose formed is specifically determined with hexokinase and glucose-6-phosphate dehydrogenase. The glucose liberated after hydrolysis of glycogen is proportional to the increase of absorbance measured at 340 nm. Fifty μL of sample was incubated with 1 mL ATP, NADP, Glucose-6-phosphate dehydrogenase buffer and 5 μL hexokinase at 37° C. for 15 min. Absorbance was measured at 340 nm wavelength, light path=1 cm. The muscle glycogen content was calculated with the following formula: Glycogen (μmol glucose/g wet muscle weight)=111.882×absorbance. 111.882 is the dilution factor.

[2] = system: semimembranosus beef muscles; assay: as above; conditions: for Glycogen, 0 h: 0 h (before injection); for Glycogen, 24 h / Glycogen, 72 h: 200 mM, calcium chloride 300 mM
Experimental: as §1, §2, §3, §4, §5

[3] = system: supraspinatus beef muscles; assay: as above; conditions: for Glycogen, 0 h: 0 h (before injection); for Glycogen, 24 h / Glycogen, 72 h: 200 mM, calcium chloride 300 mM
Experimental: as §1, §2, §3, §4, §5

[4] = system: sternomandibularis beef muscles; assay: Shear force of pre-rigor injected sectioned muscle; conditions: 200 mM (glucose, calcium chloride 300 mM)
Experimental: Pre-rigor beef muscle was sectioned into 100 g. samples at approximately 3 hours post-mortem. The pieces were injected with 10 mL of treatment solution followed by marination in the solution for 24 hours at 2° C. before testing pH and recording visual color of the muscle sections. For evaluation of shear force, samples were thawed, cooked, sliced (approximately 6 mm by 6 mm) and then cooled before readings were taken. The solutions used for this procedure were as described above for homogenized muscle.
(§6) Pre-rigor beef muscle was sectioned and the sections were injected at approximately 1 hour post-mortem with a volume of treatment solution equal to 10% of the muscle weight. Objective color measurements were taken on pieces of each muscle section and the pieces were then frozen, powdered and stored at −80° C. for up to 10 days before testing pH and analyzing oxidation-reduction potential. Shear force was evaluated as described immediately above. Solutions used in this procedure were as follows: sodium citrate (200 mM), sodium acetate (200 mM), glucose (300 mM), calcium citrate (200 mM), calcium chloride (300 mM), injection with water, and no injection (control). The calcium citrate solution was prepared as a suspension using 0.25% carrageenan and 200 mM calcium citrate due to its insolubility in water. However, use of calcium citrate can be optimized by increasing solubility by means known in the art.

[5] = system: sternomandibularis beef muscles; assay: pH of pre-rigor injected sectioned muscle; conditions: injection 10% of muscle weight, 200 mM (glucose, calcium chloride 300 mM)
Experimental: as §6

[6] = system: triceps brachii beef muscles; assay: Muscle pH, pre-rigor injection of whole muscle; conditions: 200 mM, calcium chloride 300 mM; for pH, 0 h: 0 h (before injection); for pH, 24 h: 24 h after injection; for pH, 72 h: 72 h after injection
Experimental: as §1, §2, §3
(§7) Duplicate pre-rigor samples (5 g) were weighed from powdered sample and homogenized (Polytron, Brinkman Instruments, New York, N.Y.) in 50 mL of 5 mM iodoacetic acid, 150 mM potassium chloride (pH 7.0, 24° C.) to stop glycolysis (Ahn et al., 1992). The pH of the suspension was measured with a general purpose electrode (Corning Glass Works, Corning, N.Y.) attached to an Orion Model SA 720 pH meter (Orion Research, Inc., Boston, Mass.). Post-rigor muscle pH was determined by homogenizing 5 g of sample in 50 mL of deionized water (Winger et al., 1979).

[7] = system: semimembranosus beef muscles; assay: Muscle pH, pre-rigor injection of whole muscle; conditions: for pH, 0 h: 0 h (before injection); for pH, 24 h / pH, 72 h: 200 mM, calcium chloride 300 mM
Experimental: as §1, §2, §3, §7

[8] = system: supraspinatus beef muscles; assay: Muscle pH, pre-rigor injection of whole muscle; conditions: for pH, 0 h: 0 h (before injection); for pH, 24 h / pH, 72 h: 200 mM, calcium chloride 300 mM
Experimental: as §1, §2, §3, §7

[9] = system: triceps brachii beef muscles; assay: Warner-Bratzler shear force, pre-rigor injection of whole muscle; conditions: 200 mM, calcium chloride 300 mM; for Shear force, 3 d: 3 d postmortem; for Shear force, 7 d: 7 d postmortem; for Shear force, 14 d: 14 d postmortem
Experimental: as §1, §2
(§8) Tenderness of samples was evaluated by measuring Warner-Bratzler shear force. Steaks (2.54-cm thick) from the middle of each muscle were cut and frozen at 3, 7 and 14 days postmortem. Frozen steaks (2.54 cm thick) were thawed at 4° C. for 24 hours and cooked on Farberware Open Hearth Broilers (Model 350A Walter Kidde, Bronx, N.Y.) to an internal temperature of 40° C., turned, and cooked to a final internal temperature of 70° C. (AMSA, 1995). Temperature was monitored using an OMEGA thermocouple thermometer type T (Omega Engineering, Inc., Stamford, Conn.) inserted into the geometric center of a steak. The cooked steaks were chilled 2 hours at 2° C., and then 8 cores (1.27-cm diameter) were removed parallel to the muscle fiber orientation. Cores were sheared once each on an Instron Universal Testing Machine model 55R1123 (Instron, Canton, Mass.) with a Warner-Braztler attachment. The Instron was set up with a 500 kg load cell, full scale load=1 (0-10 kg), and crosshead speed=250 mm/mim.

[10] = system: semimembranosus beef muscles; assay: as above; conditions: 200 mM, calcium chloride 300 mM; for Shear force, 3 d: 3 d postmortem; for Shear force, 7 d: 7 d postmortem; for Shear force, 14 d: 14 d postmortem
Experimental: as §1, §2, §8

[11] = system: supraspinatus beef muscles; assay: as above; conditions: 200 mM; for Shear force, 3 d: 3 d postmortem; for Shear force, 3 d / Shear force, 7 d: calcium chloride 300 mM; for Shear force, 7 d: 7 d postmortem; for reduced shear force compared with controls: supraspinatus, 3 days post-mortem, CaCl2 300 mM
Experimental: as §1, §2, §8

Row | SMILES | Glycogen, 0 h [1] [μmol/g muscle] | Glycogen, 24 h [1] | Glycogen, 72 h [1] | Glycogen, 0 h [2] [μmol/g muscle] | Glycogen, 24 h [2] | Glycogen, 72 h [2] | Glycogen, 0 h [3] [μmol/g muscle] | Glycogen, 24 h [3] [μmol/g muscle] | Glycogen, 72 h [3] | Shear force, kg (72 h) [4] | PH (0 h) [5] | pH, 72 h [5] | pH, 0 h [6] | pH, 24 h [6] | pH, 72 h [6] | pH, 0 h [7] | pH, 24 h [7] | pH, 72 h [7] | pH, 0 h [8] | pH, 24 h [8] | other results
1 | CC(=O)[O-].[Na+] [Sodium acetate, sodium acetate] | 49.53 | 28.74^b μmol/g muscle | 27.22^b μmol/g muscle | 64.24 | 40.88^b μmol/g muscle | 28.64^b μmol/g muscle | 42.83 | 24.43 | 18.10^b μmol/g muscle | 9.88^ab kg | 6.86 | 5.80^cd | 6.78 | 5.80^b | 5.48^c | 6.75 | 5.70^b | 5.38^d | 6.81 | 5.85^c | pH, 72 h [8]: 5.64^c; Shear force, 3 d [9]: 6.47^a kg; Shear force, 7 d [9]: 5.96^a kg; Shear force, 14 d [9]: 4.67 kg; Shear force, 3 d [10]: 6.61 kg; Shear force, 7 d [10]: 5.78 kg; Shear force, 14 d [10]: 5.08 kg; Shear force, 3 d [11]: 7.85^a kg; Shear force, 7 d [11]: 6.95^a kg; Shear force, 7 d ([11]; listed as NaA): significant increase in shear force
2 | [Ca+2].[Cl-].[Cl-] [Calcium chloride, calcium chloride, reference compound] | 39.14 | 28.76^b μmol/g muscle | 25.01^bc μmol/g muscle | 58.18 | 45.90^ab μmol/g muscle | 37.10^ab μmol/g muscle | 37.98 | 26.75 | 19.31^b μmol/g muscle | 6.61^a kg | 6.77 | 5.88^d | 6.77 | 5.84^b | 5.67^b | 6.76 | 5.77^b | 5.60^c | 6.75 | 5.88^c | pH, 72 h [8]: 5.54^c; Shear force, 3 d [9]: 4.95^bc kg; Shear force, 7 d [9]: 4.87^b kg; Shear force, 14 d [9]: 4.07 kg; Shear force, 3 d [10]: 6.28 kg; Shear force, 7 d [10]: 5.36 kg; Shear force, 14 d [10]: 4.03 kg; Shear force, 3 d [11]: 5.55^c kg; Shear force, 7 d [11]: 4.84^b kg; reduced shear force compared with controls [11]: 1.73 kg
3 | O=C([O-])CC(O)(CC(=O)[O-])C(=O)[O-].O=C([O-])CC(O)(CC(=O)[O-])C(=O)[O-].[Ca+2].[Ca+2].[Ca+2] [Calcium citrate, calcium citrate] | – | – | – | – | – | – | – | – | – | 7.57^a kg | 6.92 | 5.82^cd | – | – | – | – | – | – | – | – | –
4 | [F-].[Na+] [Sodium fluoride, sodium fluoride, reference compound] | 48.22 | 43.98^a μmol/g muscle | 37.30^a μmol/g muscle | 62.90 | 54.03^b μmol/g muscle | 43.77^a μmol/g muscle | 45.49 | 37.37 | 30.46^a μmol/g muscle | – | – | – | 6.76 | 6.07^a | 5.95^a | 6.70 | 6.08^a | 5.97^a | 6.72 | 6.23^a | pH, 72 h [8]: 6.09^a; Shear force, 3 d [9]: 5.18^bc kg; Shear force, 7 d [9]: 4.82^b kg; Shear force, 14 d [9]: 4.09 kg; Shear force, 3 d [10]: 6.02 kg; Shear force, 7 d [10]: 5.56 kg; Shear force, 14 d [10]: 4.60 kg; Shear force, 3 d [11]: 6.13^bc kg; Shear force, 7 d [11]: 4.80^b kg; reduced shear force compared with controls [11]: 1.15 kg
